Tests used:
Type in all cases: cell-based
SP174 receptor [1] = target: T1, SP174 receptor (Homo sapiens, UniProt Q9BPV8); assay: FLIPR assay, HEK293f cells transiently co-transfected with SP174 receptor and chimera G protein Gq/i3; parameters: expressed in transfected cells; host or cells: HEK293f cells (G-418-resistant HEK293), transient, lipofectamine; conditions: Example 1; for specific activity on SP174 transfected cells (FLIPR screen of ligand collection): versus vector/Gq/i3 negative control; for EC50: HEK293f cells co-transfected with SP174 and Gq/i3
T1 sequence (Q9BPV8 1-333 isoform Q9BPV8-2): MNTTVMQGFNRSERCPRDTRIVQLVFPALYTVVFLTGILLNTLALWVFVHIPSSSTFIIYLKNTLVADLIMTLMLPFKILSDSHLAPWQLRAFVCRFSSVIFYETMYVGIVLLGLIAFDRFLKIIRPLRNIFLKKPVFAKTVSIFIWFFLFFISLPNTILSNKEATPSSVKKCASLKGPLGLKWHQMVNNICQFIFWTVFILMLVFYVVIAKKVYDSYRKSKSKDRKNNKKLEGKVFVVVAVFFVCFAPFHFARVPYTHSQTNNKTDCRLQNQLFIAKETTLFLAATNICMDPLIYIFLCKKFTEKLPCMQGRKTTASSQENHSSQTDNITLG
Excerpt: SP174 receptor cDNA was subcloned into the pcDNA3.1 expression vector (Invitrogen) and transiently co-transfected with chimera G protein Gq/i3 into HEK293f cells using lipofectamine (Gibco-BRL). HEK293f cells are the HEK293 cells which are resistant to G-418. Chimera G protein Gq/i3 was constructed by replacing the C-terminus five amino acid residues of human Gqa with the five amino acid residue of human Gi3a (Conklin et al., Nature, 363, p274-276). pcDNA 3.1 vector DNA was also co-transfected with chimera G protein Gq/i3 as a negative control. The transfected cells were seeded into 96 well plates and incubated overnight at 37° C. in a tissue culture incubator. The growth medium was aspirated and replaced with […] of loading medium (DMEM containing 1% FBS, […]/10% pluronic acid and 2.5 mM Probenecid) and incubated for 1 hour at 37° C. The cells were subsequently washed 3 times with Hank's BSS buffer containing 20 mM HEPES, 2.5 mM Probenecid, and 0.1% BSA using the gentle setting in a Denley cell washer (Denley Instruments). The washed cells were placed in a Fluorometric Imaging Plate Reader (FLIPR) and changes in cellular fluorescence recorded after the addition of various dilutions of tissue extract fractions.
EC50 values for ADP, ADPβS, 2-MeS-ADP, 2-MeS-ATP, 2-Cl-ATP and IDP were […], respectively, and the order of potency was 2-MeS-ATP=2-MeS-ADP>ADP=ADPβS>IDP.
The SP174 receptor assay was similar as Example 1 a. The SP174 receptor cDNA was subcloned into the pcDNA3.1 expression vector (Invitrogen) and transiently co-transfected with Gq/i3 into HEK293f cells using lipofectamine (Gibco-BRL). pcDNA 3.1 vector DNA was also co-transfected with Gq/i3 as a negative control. A variety of nucleotides, RBI small moleculars, and in-house peptide collection were screened. Twelve compounds were identified to be the agonists of the SP174 receptor. Their fluorecence change with different amount of the compounds were detected, the data were processed using Prism software to obtain their EC50 value. Other agonists can be identified using similar approaches. To identify antagonists of the SP174 receptor, two-addition approach was adapted. First, the compounds to be screened were added to the SP174 receptor transfected cells, after 5 minutes 100 nM of ADP were added as second addition and the fluorescence changes were recorded. In this assay antagonists inhibit the fluorecence signal of ADP.

SP174 receptor [2] = target: T1, SP174 receptor; assay: SP174 receptor ligand identification, Ca2+ FLIPR in transfected mammalian cells (description section); parameters: expressed in transfected cells; conditions: values given in the description; SP174 in pcDNA3.1 transfected into mammalian cells; read-out: EC50 for SP174 (agonists)
Protocol: (§1) In order to identify SP174 receptor ligands the SP174 open reading frame was subcloned into the pcDNA3.1 expression vector under the control of the CMV promoter and transfected into mammalian cells. After allowing two days for receptor expression, the transfected cells were seeded into 96 well plates, loaded with the Ca^2+ sensitive Fluo-3AM dye and challenged with various compounds. The peak increments in Ca^2+ evoked by the test compounds were measured using the Fluorometric Imaging Plate Reader (FLIPR) system.

SP174 receptor [3] = target: T1, SP174 receptor; assay: cAMP assay (inhibition of adenylyl cyclase) in SP174 receptor cells; parameters: expressed in transfected cells
Protocol: as §1, with “system. The endogenous ligand of the SP174 receptor was purified from rat spinal cords using a series of chromatography steps and its structure was identified as being ADP by Mass spectroscopy. […] In addition to ADP, other agonists were also identified for SP174.” for “system.”
The SP174 receptor cDNA was stably transfected into HEK293f cells according standard procedures. The SP174 receptor stable cell line and wild type cell grown on 12-well plates were incubated for 2 hr with 200 μl of medium plus 5 μCi of [3H]adenine/ml. Then 50 μl of Hepes (250 mM, pH 7.5, 50 μM Forskolin, 200 μM IBMX) with the compound to be screened is added to the cells and incubated for 10 minutes at 37° C. Incubations were terminated by addition of 0.8 ml of 5% trichloroacetic acid. [^3H]cAMP was purified using Dowex and alumina chromatography as previously described (Harden et al., Mol. Pharmacol. 21:570-580, 1982).

specific activity on SP174 transfected cells (FLIPR screen of ligand collection) (SP174 receptor [1]) | EC50 (SP174 receptor [2]) [nM] | EC50 (SP174 receptor [1]) [nM] | mode of activation of the SP174 receptor (SP174 receptor [3]) | Structure (SMILES)
specifically active | – | – | – | Nc1nc(Cl)nc2c1ncn2[C@@H]1O[C@H](COP(=O)(O)OP(=O)(O)O)[C@@H](O)[C@H]1O [2-Cl-ADP]
– | 8 | 94 | – | Nc1nc(Cl)nc2c1ncn2[C@@H]1O[C@H](COP(=O)(O)OP(=O)(O)OP(=O)(O)O)[C@@H](O)[C@H]1O [2-Cl-ATP]
specifically active | 0.32 | 21 | – | CSc1nc(N)c2ncn([C@@H]3O[C@H](COP(=O)(O)OP(=O)(O)O)[C@@H](O)[C@H]3O)c2n1 [2-MeS-ADP]
– | 8 | 97 | – | CSc1nc(N)c2ncn([C@@H]3O[C@H](COP(=O)(O)OP(=O)(O)OP(=O)(O)O)[C@@H](O)[C@H]3O)c2n1 [2-MeS-ATP]
activate specifically | 1.6 | 80 | inhibition of adenylyl cyclase | Nc1ncnc2c1ncn2[C@@H]1O[C@H](COP(=O)(O)OP(=O)(O)O)[C@@H](O)[C@H]1O [ADP]
specifically active | 8 | – | – | Nc1ncnc2c1ncn2[C@@H]1O[C@H](COP(=O)(O)OP(=O)(O)OP(=O)(O)OC[C@H]2O[C@@H](n3cnc4c(N)ncnc43)[C@H](O)[C@@H]2O)[C@@H](O)[C@H]1O [AP3A]
– | 0.32 | – | – | Nc1ncnc2c1ncn2[C@@H]1O[C@H](COP(=O)(O)OP(=O)(O)OP(=O)(O)O)[C@@H](O)[C@H]1O [ATP]
– | 8 | – | – | Nc1ncnc2c1ncn2[C@@H]1O[C@H](COP(=O)(O)OP(=O)(O)OP(O)(O)=S)[C@@H](O)[C@H]1O [ATPγS]
– | 200 | 196 | – | O=c1[nH]cnc2c1ncn2[C@@H]1O[C@H](COP(=O)(O)OP(=O)(O)O)[C@@H](O)[C@H]1O [IDP]

Structure (SMILES) | specific activity on SP174 transfected cells (FLIPR screen of ligand collection) (SP174 receptor [1]) | EC50 (SP174 receptor [2]) [nM] | EC50 (SP174 receptor [1]) [nM] | mode of activation of the SP174 receptor (SP174 receptor [3])
Nc1ncnc2c1ncn2[C@@H]1O[C@H](COP(=O)(O)OP(O)(O)=S)[C@@H](O)[C@H]1O [ADPβS] | specifically active | 8 | 43 | –
